Read-outs that look alike come from different tables or passages of the source.
Biological target: SMYD3 (Homo sapiens (Human), UniProt Q9H7B4)
Experiment: SMYD3 biochemical assay (SMYD3 enzyme assay on MEKK2 protein substrate, 3H-SAM scintillation proximity assay)
Summary of the method: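 Native full-length human SMYD3, expressed in E. coli, was preincubated with compound for 30 min at room temperature in 25 mM Tris-Cl pH 8.0, 1 mM TCEP, 0.005% BSG and 0.005% Tween 20. ³H-SAM plus GST-MEKK2 then started the reaction. It was stopped with unlabeled SAM (100 uM final), and methylated MEKK2 was read by SPA.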

[1] = read-out: SMYD3 Biochem IC50 (μM)*
[2] = Table 1A, average of n = 1 to n = 50, read-out: SMYD3 Biochem IC50

Chain of SMYD3 (Q9H7B4 whole entry): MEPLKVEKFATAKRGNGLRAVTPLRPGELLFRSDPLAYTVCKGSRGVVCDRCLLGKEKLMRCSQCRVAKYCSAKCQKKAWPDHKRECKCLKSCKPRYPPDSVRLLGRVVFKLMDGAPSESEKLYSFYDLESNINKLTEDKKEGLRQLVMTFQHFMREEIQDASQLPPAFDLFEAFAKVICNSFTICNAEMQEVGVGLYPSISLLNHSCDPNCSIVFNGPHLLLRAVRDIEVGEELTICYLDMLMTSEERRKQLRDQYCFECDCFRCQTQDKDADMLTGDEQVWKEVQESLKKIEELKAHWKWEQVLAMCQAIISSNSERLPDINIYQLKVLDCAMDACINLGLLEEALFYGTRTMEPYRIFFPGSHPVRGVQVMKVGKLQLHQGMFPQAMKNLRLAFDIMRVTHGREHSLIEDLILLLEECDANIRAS

Row | IC50 (read-out: SMYD3 Biochem IC50) [µM] | SMILES | further results
1 | – | C[C@H](N)C(=O)N1CCC(F)(CNC(=O)c2ccc3c(c2)CC(=O)N3)CC1 [compound 113, N-((1-(L-alanyl)-4-fluoropiperidin-4-yl)methyl)-2-oxoindoline-5-carboxamide] | IC50 [1]: 3.86 µM
2 | 18.8 | CC(C)(CNC(=O)CN)CNS(=O)(=O)c1ccc2c(c1)CC(=O)N2 [compound 486, 2-amino-N-(2,2-dimethyl-3-((2-oxoindoline)-5-sulfonamido)propyl)acetamide] | –
3 | 70.4 | CC(NC(=O)c1cccnc1O)C1CCN(C(=O)[C@H](C)N)CC1 (stereo partly drawn) [compound 409, N-(1-(1-(L-alanyl)piperidin-4-yl)ethyl)-2-hydroxynicotinamide] | –
4 | > 100 | N[C@H]1CC[C@H](NC(=O)c2ccc3nonc3c2)CC1 [compound 287, N-((1r,4r)-4-aminocyclohexyl)benzo[c][1,2,5]oxadiazole-5-carboxamide] | –
5 | – | CCC(=O)Nc1cccc(C(=O)N[C@H]2CC[C@H](N)CC2)c1 [compound 25, N-((1r,4r)-4-aminocyclohexyl)-3-propionamidobenzamide] | IC50 [1]: 84.3 µM
6 | – | NCCC(=O)N[C@H]1CC[C@H](NC(=O)c2nccnc2N)CC1 [compound 152, 3-amino-N-((1r,4r)-4-(3-aminopropanamido)cyclohexyl)pyrazine-2-carboxamide] | IC50 [1]: > 100 µM
7 | – | CCc1ccc(C(=O)NC(c2ccccc2)C2CCNCC2)s1 (centres unmarked) [compound 55, 5-ethyl-N-(phenyl(piperidin-4-yl)methyl)thiophene-2-carboxamide] | IC50 [1]: 116 µM
8 | > 100 | CC(NC(=O)c1ccc2c(c1)CNC2=O)C1CCN(C(=O)[C@H](C)N)CC1 (stereo partly drawn) [compound 469, N-(1-(1-(L-alanyl)piperidin-4-yl)ethyl)-1-oxoisoindoline-5-carboxamide] | –
9 | 37.5 | NCCC(=O)N[C@H]1CC[C@H](NC(=O)c2cc3cc(Cl)ccc3[nH]2)CC1 [compound 230, N-((1r,4r)-4-(3-aminopropanamido)cyclohexyl)-5-chloro-1H-indole-2-carboxamide] | –
10 | > 100 | Cc1cc(C(=O)N[C@H]2CC[C@H](N)CC2)ccn1 [compound 394, N-((1r,4r)-4-aminocyclohexyl)-2-methylisonicotinamide] | –
11 | 41.7 | CC(NC(=O)c1cc2cc(F)ccc2[nH]1)C1CCN(C(=O)[C@H](C)N)CC1 (stereo partly drawn) [compound 198, N-(1-(1-(L-alanyl)piperidin-4-yl)ethyl)-5-fluoro-1H-indole-2-carboxamide] | –
12 | 77.9 | CC(NC(=O)c1cc2cc(Cl)ccc2[nH]1)C1CCN(C(=O)[C@H](C)N)CC1 (stereo partly drawn) [compound 229, N-(1-(1-(L-alanyl)piperidin-4-yl)ethyl)-5-chloro-1H-indole-2-carboxamide] | –
13 | > 100 | CC(NC(=O)c1cccc(F)n1)C1CCN(C(=O)[C@H](C)N)CC1 (stereo partly drawn) [compound 265, N-(1-(1-(L-alanyl)piperidin-4-yl)ethyl)-6-fluoropicolinamide] | –
14 | > 100 | NCCC(=O)N[C@H]1CC[C@H](NC(=O)CCCn2ccnc2)CC1 [compound 375, N-((1r,4r)-4-(3-aminopropanamido)cyclohexyl)-4-(1H-imidazol-1-yl)butanamide] | –
15 | 85.1 | NCCC(=O)N[C@H]1CC[C@H](NC(=O)c2ccc3c(c2)no[n+]3[O-])CC1 [compound 331, 5-(((1r,4r)-4-(3-aminopropanamido)cyclohexyl)carbamoyl)benzo[c][1,2,5]oxadiazole 1-oxide] | –
16 | 10.2 | NCCC(=O)N1CCC(CC(=O)N2CCC3NC(=O)CC3C2)CC1 (centres unmarked) [compound 483, 5-(2-(1-(3-aminopropanoyl)piperidin-4-yl)acetyl)octahydro-2H-pyrrolo[3,2-c]pyridin-2-one] | –
17 | – | CCc1ncc(C(=O)NC(c2ccccc2)C2CCNCC2)s1 (centres unmarked) [compound 60, 2-ethyl-N-(phenyl(piperidin-4-yl)methyl)thiazole-5-carboxamide] | IC50 [1]: 150 µM
18 | – | CCc1cccc(C(=O)N[C@@H]2CCN(S(=O)(=O)CCCN)[C@H](C)C2)c1 (racemic) [compound 569, (±)-cis-N-(1-((3-aminopropyl)sulfonyl)-2-methylpiperidin-4-yl)-3-ethylbenzamide] | IC50 [2]: 8.02 µM
19 | – | NCCC(=O)N[C@H]1CC[C@H](NC(=O)c2cncc(F)c2)CC1 [compound 158, N-((1r,4r)-4-(3-aminopropanamido)cyclohexyl)-5-fluoronicotinamide] | IC50 [1]: > 100 µM
20 | – | N[C@H]1CC[C@H](NC(=O)c2cc(Cl)[nH]n2)CC1 [compound 545, N-((1r,4r)-4-aminocyclohexyl)-5-chloro-1H-pyrazole-3-carboxamide] | IC50 [2]: > 50 µM
21 | 37.4 | NCCC(=O)N[C@H]1CC[C@H](NC(=O)c2cnccn2)CC1 [compound 252, N-((1r,4r)-4-(3-aminopropanamido)cyclohexyl)pyrazine-2-carboxamide] | –
22 | – | CC(=O)Nc1ccc(S(=O)(=O)N2CCC(NC(=O)c3cnccn3)CC2)cc1 [compound 5, N-(1-((4-acetamidophenyl)sulfonyl)piperidin-4-yl)pyrazine-2-carboxamide] | IC50 [1]: > 100 µM

Row | IC50 (read-out: SMYD3 Biochem IC50) [µM] | SMILES | further results
23 | > 100 | CC(NC(=O)c1cn2ccsc2n1)C1CCN(C(=O)[C@H](C)N)CC1 (stereo partly drawn) [compound 239, N-(1-(1-(L-alanyl)piperidin-4-yl)ethyl)imidazo[2,1-b]thiazole-6-carboxamide] | –
24 | – | CC(=O)Nc1ccc(S(=O)(=O)N2CCC(NC(=O)c3cn(C4CC4)nn3)CC2)cc1 [compound 10, N-(1-((4-acetamidophenyl)sulfonyl)piperidin-4-yl)-1-cyclopropyl-1H-1,2,3-triazole-4-carboxamide] | IC50 [1]: 17 µM
25 | – | Cn1nc(N)cc1C(=O)N[C@H]1CC[C@H](N)CC1 [compound 48, 3-amino-N-((1r,4r)-4-aminocyclohexyl)-1-methyl-1H-pyrazole-5-carboxamide] | IC50 [1]: 117 µM
26 | 35.8 | Cc1ncc(C(=O)N[C@H]2CC[C@H](NC(=O)CCN)CC2)cn1 [compound 184, N-((1r,4r)-4-(3-aminopropanamido)cyclohexyl)-2-methylpyrimidine-5-carboxamide] | –
27 | 29 | NCCC(=O)N[C@H]1CC[C@H](NC(=O)c2ccc3ncsc3c2)CC1 [compound 281, N-((1r,4r)-4-(3-aminopropanamido)cyclohexyl)benzo[d]thiazole-6-carboxamide] | –
28 | – | CC(NC(=O)c1nccc2ccccc12)C1CCN(C(=O)[C@H](C)N)CC1 (stereo partly drawn) [compound 171, N-(1-(1-(L-alanyl)piperidin-4-yl)ethyl)isoquinoline-1-carboxamide] | IC50 [1]: > 100 µM
29 | > 50 | CC(NC(=O)c1cncnc1O)C1CCN(C(=O)[C@H](C)N)CC1 (stereo partly drawn) [compound 509, N-(1-(1-(L-alanyl)piperidin-4-yl)ethyl)-4-hydroxypyrimidine-5-carboxamide] | –
30 | > 100 | Nc1cccc(C(=O)N[C@H]2CC[C@H](N)CC2)n1 [compound 386, 6-amino-N-((1r,4r)-4-aminocyclohexyl)picolinamide] | –
31 | > 50 | NCCC(=O)N[C@H]1CC[C@H](NC(=O)c2cncnc2O)CC1 [compound 510, N-((1r,4r)-4-(3-aminopropanamido)cyclohexyl)-4-hydroxypyrimidine-5-carboxamide] | –
32 | 5.38 | NCCC(=O)N[C@H]1CC[C@H](NC(=O)c2ccc3c(c2)C(=O)C(=O)N3)CC1 [compound 504, N-((1r,4r)-4-(3-aminopropanamido)cyclohexyl)-2,3-dioxoindoline-5-carboxamide] | –
33 | > 100 | CC(NC(=O)c1cccc2[nH]ccc12)C1CCN(C(=O)[C@H](C)N)CC1 (stereo partly drawn) [compound 248, N-(1-(1-(L-alanyl)piperidin-4-yl)ethyl)-1H-indole-4-carboxamide] | –
34 | > 100 | NCCC(=O)N[C@H]1CC[C@H](NC(=O)c2ccc(O)nn2)CC1 [compound 270] | –
35 | 77 | CC1=NN(c2ccc(C(=O)NC(C)C3CCN(C(=O)[C@H](C)N)CC3)cc2)C(=O)C1 (stereo partly drawn) [compound 218, N-(1-(1-(L-alanyl)piperidin-4-yl)ethyl)-4-(3-methyl-5-oxo-4,5-dihydro-1H-pyrazol-1-yl)benzamide] | –
36 | > 100 | Cc1cc(C)c(C(=O)NC(C)C2CCN(C(=O)[C@H](C)N)CC2)c(=O)[nH]1 (stereo partly drawn) [compound 274, N-(1-(1-(L-alanyl)piperidin-4-yl)ethyl)-4,6-dimethyl-2-oxo-1,2-dihydropyridine-3-carboxamide] | –
37 | > 100 | NCCC(=O)N[C@H]1CC[C@H](NC(=O)c2cncs2)CC1 [compound 442, N-((1r,4r)-4-(3-aminopropanamido)cyclohexyl)thiazole-5-carboxamide] | –
38 | – | NCCCC(=O)N1CCC(NC(=O)c2ncn[nH]2)CC1 [Cpd. No. 560, N-(1-(4-aminobutanoyl)piperidin-4-yl)-1H-1,2,4-triazole-5-carboxamide] | IC50 [2]: > 10 µM
39 | > 100 | CC(NC(=O)c1cncs1)C1CCN(C(=O)[C@H](C)N)CC1 (stereo partly drawn) [compound 309, N-(1-(1-(L-alanyl)piperidin-4-yl)ethyl)thiazole-5-carboxamide] | –
40 | – | CC(=O)c1c[nH]c(C(=O)Nc2ccc(CN)cc2)c1 [compound 66, 4-acetyl-N-(4-(aminomethyl)phenyl)-1H-pyrrole-2-carboxamide] | IC50 [1]: 60.9 µM
41 | – | CC(=O)c1c[nH]c(C(=O)N[C@H]2CC[C@H](N)CC2)c1 [compound 64, 4-acetyl-N-((1r,4r)-4-aminocyclohexyl)-1H-pyrrole-2-carboxamide] | IC50 [1]: 134 µM
42 | > 100 | O=C1CC2CN(C(=O)CC3CCNCC3)CCC2N1 (centres unmarked) [compound 461, 5-(2-(piperidin-4-yl)acetyl)octahydro-2H-pyrrolo[3,2-c]pyridin-2-one] | –
43 | – | C[C@H](N)C(=O)N1CC[C@H](CNC(=O)c2ccc3c(c2)CC(=O)N3)C1 [compound 135, N-(((R)-1-(L-alanyl)pyrrolidin-3-yl)methyl)-2-oxoindoline-5-carboxamide] | IC50 [1]: 13.6 µM
44 | 37.5 | NCCC(=O)N[C@H]1CC[C@H](NC(=O)c2n[nH]c3ccccc23)CC1 [compound 425, N-((1r,4r)-4-(3-aminopropanamido)cyclohexyl)-1H-indazole-3-carboxamide] | –
